The target of series [1] is NaV1.6 (Homo sapiens (Human), UniProt Q9UQD0). Description: Sodium Influx Assay (Flux), NaV1.6.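 Further: Tetracycline-induced cells, compounds applied for one hour at room temperature with modulators holding channels open, IC50 from percent inhibition of sodium influx.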 The series is classed as cell-based. To be noted: Trex HEK293 cells, ANG2 dye, inactivated state.
Series [2] concerns the target NaV1.1 (Homo sapiens (Human), UniProt P35498). Description: Sodium Influx Assay (Flux), NaV1.1.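 Further: channels co-expressed with human β1 subunit and held open by modulators, cells exposed to compounds for one hour at room temperature, IC50 from percent inhibition of influx.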 The series is classed as cell-based. The following applies: Trex HEK293 cells, ANG2 dye, inactivated state.
Series [3] concerns the target NaV1.5 (Homo sapiens (Human), UniProt Q14524). Put plainly: Sodium Influx Assay (Flux), NaV1.5. To be noted: read-out: Flux NaV1.5 IC50; Trex HEK293 cells, ANG2 dye, inactivated state.

Where a name gives a salt, the structure may show the parent alone.

Chain of NaV1.5 (Q14524 other isoform, or with tags, fused parts or gaps): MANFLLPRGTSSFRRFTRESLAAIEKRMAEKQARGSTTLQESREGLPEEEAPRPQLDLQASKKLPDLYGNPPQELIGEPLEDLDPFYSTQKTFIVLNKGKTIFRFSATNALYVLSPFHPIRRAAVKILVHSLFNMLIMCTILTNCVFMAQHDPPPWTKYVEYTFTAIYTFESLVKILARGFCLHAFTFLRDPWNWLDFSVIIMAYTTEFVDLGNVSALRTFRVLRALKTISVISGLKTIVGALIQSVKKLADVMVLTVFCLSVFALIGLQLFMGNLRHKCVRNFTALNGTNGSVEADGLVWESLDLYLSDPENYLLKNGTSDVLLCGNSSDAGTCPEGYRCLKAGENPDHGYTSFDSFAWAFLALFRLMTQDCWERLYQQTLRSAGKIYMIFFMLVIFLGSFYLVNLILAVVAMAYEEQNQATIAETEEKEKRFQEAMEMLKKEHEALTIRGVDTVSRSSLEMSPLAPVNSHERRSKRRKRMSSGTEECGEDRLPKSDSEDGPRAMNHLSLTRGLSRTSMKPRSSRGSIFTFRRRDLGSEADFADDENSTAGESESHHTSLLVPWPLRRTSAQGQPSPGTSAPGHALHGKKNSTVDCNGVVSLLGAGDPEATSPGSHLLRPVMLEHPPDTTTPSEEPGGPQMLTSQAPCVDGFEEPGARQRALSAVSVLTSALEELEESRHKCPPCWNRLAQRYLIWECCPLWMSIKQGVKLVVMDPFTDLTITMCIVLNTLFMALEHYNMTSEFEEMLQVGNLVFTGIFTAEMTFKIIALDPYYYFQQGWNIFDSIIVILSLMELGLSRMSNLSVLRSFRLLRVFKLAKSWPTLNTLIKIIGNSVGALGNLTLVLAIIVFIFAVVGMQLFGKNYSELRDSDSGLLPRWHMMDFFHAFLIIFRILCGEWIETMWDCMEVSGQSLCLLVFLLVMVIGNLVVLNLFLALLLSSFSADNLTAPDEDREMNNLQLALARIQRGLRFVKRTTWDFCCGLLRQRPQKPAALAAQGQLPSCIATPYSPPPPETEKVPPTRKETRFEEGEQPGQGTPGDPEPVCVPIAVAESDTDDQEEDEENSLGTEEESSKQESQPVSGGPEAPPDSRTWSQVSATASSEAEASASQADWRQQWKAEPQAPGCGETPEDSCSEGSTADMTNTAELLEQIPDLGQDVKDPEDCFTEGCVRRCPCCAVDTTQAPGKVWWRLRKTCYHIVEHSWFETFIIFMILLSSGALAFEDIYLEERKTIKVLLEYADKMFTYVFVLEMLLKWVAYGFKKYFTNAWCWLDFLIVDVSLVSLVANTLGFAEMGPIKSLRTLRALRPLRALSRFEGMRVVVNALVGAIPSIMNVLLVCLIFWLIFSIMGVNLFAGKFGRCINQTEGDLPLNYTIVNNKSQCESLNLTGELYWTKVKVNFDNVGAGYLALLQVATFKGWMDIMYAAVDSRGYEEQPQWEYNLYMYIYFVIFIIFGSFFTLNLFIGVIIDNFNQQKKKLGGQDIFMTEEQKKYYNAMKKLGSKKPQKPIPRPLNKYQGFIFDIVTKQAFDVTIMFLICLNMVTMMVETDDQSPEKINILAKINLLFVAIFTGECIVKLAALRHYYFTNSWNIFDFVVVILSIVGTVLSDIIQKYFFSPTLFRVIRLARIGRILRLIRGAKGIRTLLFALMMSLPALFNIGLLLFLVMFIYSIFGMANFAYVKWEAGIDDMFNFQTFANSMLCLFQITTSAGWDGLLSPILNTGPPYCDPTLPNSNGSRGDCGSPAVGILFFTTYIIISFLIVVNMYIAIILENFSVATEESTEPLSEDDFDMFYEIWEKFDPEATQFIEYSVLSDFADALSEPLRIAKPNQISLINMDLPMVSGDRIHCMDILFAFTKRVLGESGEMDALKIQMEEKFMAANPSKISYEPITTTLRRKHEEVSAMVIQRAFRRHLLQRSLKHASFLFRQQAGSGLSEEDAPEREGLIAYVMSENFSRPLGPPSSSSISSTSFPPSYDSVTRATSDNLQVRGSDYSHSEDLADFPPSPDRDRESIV

Take `C[C@H](Nc1cc(F)c(S(=O)(=O)Nc2ccon2)c(F)c1)c1cc(F)ccc1F` [Example 240, (S)-4-((1-(2,5-difluorophenyl)ethyl)amino)-2,6-difluoro-N-(isoxazol-3-yl)benzenesulfonamide]: the IC50 was 3.17 µM in series [1], 30 µM in series [2] and 30 µM in series [3].

On to `O=S(=O)(Nc1ccncn1)c1cc(Cl)c(NC2(c3cc(F)ccc3F)CC2)cc1F` [Example 241, 5-chloro-4-((1-(2,5-difluorophenyl)cyclopropyl)amino)-2-fluoro-N-(pyrimidin-4-yl)benzenesulfonamide], for which the IC50 in series [1] turned out to be 2.36 µM; in series [2], 26.8 µM; in series [3], 30 µM.

Take `O=S(=O)(Nc1ccncn1)c1cc(Cl)c(NC2(c3ccccc3F)CC2)cc1F` [Example 242, 5-chloro-2-fluoro-4-((1-(2-fluorophenyl)cyclopropyl)amino)-N-(pyrimidin-4-yl)benzenesulfonamide]: the IC50 in series [1] was determined as 1.95 µM; in series [2], 30 µM; in series [3] it was 30 µM.

Regarding `Cc1cc(NS(=O)(=O)c2cc(Cl)c(N[C@@H](C)c3ccccc3Cl)cc2F)ncn1` [Example 244, (S)-5-chloro-4-((1-(2-chlorophenyl)ethyl)amino)-2-fluoro-N-(6-methylpyrimidin-4-yl)benzenesulfonamide], the results for the 50% inhibitory concentration (IC50) in series [1], in series [2] and in series [3] were 4.28 µM, 30 µM and 22.2 µM, respectively.

On to `C[C@H](Nc1cc(F)c(S(=O)(=O)Nc2ccnc(C(F)(F)F)n2)cc1Cl)c1ccccc1Cl` [Example 245, (S)-5-chloro-4-((1-(2-chlorophenyl)ethyl)amino)-2-fluoro-N-(2-(trifluoromethyl)pyrimidin-4-yl)benzenesulfonamide], for which the values for the IC50 in series [1], in series [2] and in series [3] were 5.38 µM, 10.5 µM and 6.55 µM, respectively.

For the molecule `COC1CN(Cc2cccc(F)c2CNc2cc(F)c(S(=O)(=O)Nc3cscn3)cc2Cl)C1` [Example 248, 5-chloro-2-fluoro-4-((2-fluoro-6-((3-methoxyazetidin-1-yl)methyl)benzyl)amino)-N-(thiazol-4-yl)benzenesulfonamide 2,2,2-trifluoroacetate], the results for the IC50 in series [1], in series [2] and in series [3] were 0.431 µM, 21.4 µM and 26.5 µM, respectively.

Take `CN(C)Cc1cccc(F)c1CNc1cc(F)c(S(=O)(=O)Nc2cscn2)cc1Cl` [Example 249, 5-chloro-4-((2-((dimethylamino)methyl)-6-fluorobenzyl)amino)-2-fluoro-N-(thiazol-4-yl)benzenesulfonamide 2,2,2-trifluoroacetate]: the IC50 in series [1] is 0.163 µM; in series [2], 30 µM; in series [3] it was 30 µM.

As to `O=S(=O)(Nc1cscn1)c1cc(Cl)c(NCc2c(F)cccc2CN2CCOCC2)cc1F` [Example 250, 5-chloro-2-fluoro-4-((2-fluoro-6-(morpholinomethyl)benzyl)amino)-N-(thiazol-4-yl)benzenesulfonamide], the figures for the IC50 in series [1], in series [2] and in series [3] were 9.06 µM, 23.6 µM and 30 µM, respectively.

With `O=S(=O)(Nc1cscn1)c1cc(Cl)c(NCc2c(F)cccc2CN2CCC(F)(F)CC2)cc1F` [Example 251, 5-chloro-4-((2-((4,4-difluoropiperidin-1-yl)methyl)-6-fluorobenzyl)amino)-2-fluoro-N-(thiazol-4-yl)benzenesulfonamide], the IC50 was determined as 3.71 µM in series [1], 8.68 µM in series [2] and 3.35 µM in series [3].

In the case of `O=S(=O)(Nc1cscn1)c1c(F)cc(NCc2c(F)cccc2CN2CC3(CCC3)C2)cc1F` [Example 252, 4-((2-((2-azaspiro[3.3]heptan-2-yl)methyl)-6-fluorobenzyl)amino)-2,6-difluoro-N-(thiazol-4-yl)benzenesulfonamide formate], the values for the IC50 in series [1], in series [2] and in series [3] were 0.036 µM, 9.96 µM and 12.6 µM, respectively.

As for `C[C@H](Nc1cc(F)c(S(=O)(=O)Nc2cscn2)cc1Cl)c1cccc(CN(C)C)c1` [Example 253, (S)-5-chloro-4-((1-(3-((dimethylamino)methyl)phenyl)ethyl)amino)-2-fluoro-N-(thiazol-4-yl)benzenesulfonamide formate], the IC50 in series [1] came out at 2.1 µM; in series [2] it was 20 µM; in series [3], 13.1 µM.

As to `C[C@@H](Nc1cc(F)c(S(=O)(=O)Nc2cscn2)cc1Cl)c1cccc(CN(C)C)c1` [Example 254, (R)-5-chloro-4-((1-(3-((dimethylamino)methyl)phenyl)ethyl)amino)-2-fluoro-N-(thiazol-4-yl)benzenesulfonamide formate], the results for the IC50 in series [1], in series [2] and in series [3] were 9.44 µM, 14.1 µM and 3.62 µM, respectively.

Regarding `C[C@H](Nc1cc(F)c(S(=O)(=O)Nc2cscn2)cc1Cl)c1cc(CN2CCCCC2)ccc1F` [Example 256, (S)-5-chloro-2-fluoro-4-((1-(2-fluoro-5-(piperidin-1-ylmethyl)phenyl)ethyl)amino)-N-(thiazol-4-yl)benzenesulfonamide formate], the figures for the IC50 in series [1], in series [2] and in series [3] were 1.22 µM, 8.82 µM and 6.97 µM, respectively.

In the case of `O=S(=O)(Nc1ccon1)c1cc(Cl)c(NCc2ccccc2CN2CCC2)cc1F` [Example 258, 4-((2-(azetidin-1-ylmethyl)benzyl)amino)-5-chloro-2-fluoro-N-(isoxazol-3-yl)benzenesulfonamide], the values for the IC50 in series [1], in series [2] and in series [3] were 3.69 µM, 30 µM and 30 µM, respectively.

Regarding `O=S(=O)(Nc1ccon1)c1c(F)cc(NCc2ccccc2CN2CCC2)cc1F` [Example 259, 4-((2-(azetidin-1-ylmethyl)benzyl)amino)-2,6-difluoro-N-(isoxazol-3-yl)benzenesulfonamide], the IC50 stood at 1.37 µM in series [1], 29.2 µM in series [2] and 30 µM in series [3].

On to `O=S(=O)(Nc1cccnn1)c1cc(Cl)c(NCc2c(F)cccc2CN2CCC2)cc1F` [Example 260, 4-((2-(azetidin-1-ylmethyl)-6-fluorobenzyl)amino)-5-chloro-2-fluoro-N-(pyridazin-3-yl)benzenesulfonamide], for which the IC50 turned out to be 1.88 µM in series [1], 30 µM in series [2] and 30 µM in series [3].

With `O=S(=O)(Nc1cscn1)c1cc(Cl)c(NCc2ccccc2CCN2CCC2)cc1F` [Example 261, 4-((2-(2-(azetidin-1-yl)ethyl)benzyl)amino)-5-chloro-2-fluoro-N-(thiazol-4-yl)benzenesulfonamide formate], the IC50 is 0.146 µM in series [1], 28.9 µM in series [2] and 26.3 µM in series [3].

As for `O=S(=O)(Nc1cscn1)c1cc(Cl)c(NCc2cc(CCN3CCC3)ccc2F)cc1F` [Example 262, 4-((5-(2-(azetidin-1-yl)ethyl)-2-fluorobenzyl)amino)-5-chloro-2-fluoro-N-(thiazol-4-yl)benzenesulfonamide formate], the IC50 was determined as 1.42 µM in series [1], 8.29 µM in series [2] and 7.32 µM in series [3].

For the molecule `O=S(=O)(Nc1cscn1)c1cc(Cl)c(NCc2cc(CCN3CC(F)C3)ccc2F)cc1F` [Example 263, 5-chloro-2-fluoro-4-((2-fluoro-5-(2-(3-fluoroazetidin-1-yl)ethyl)benzyl)amino)-N-(thiazol-4-yl)benzenesulfonamide formate], the IC50 was 1.02 µM in series [1], 7.71 µM in series [2] and 4.78 µM in series [3].

As for `O=S(=O)(Nc1cscn1)c1cc(Cl)c(N[C@H]2C[C@H](N3CCC3)c3ccccc32)cc1F` [Example 264, 4-(((1S,3S)-3-(azetidin-1-yl)-2,3-dihydro-1H-inden-1-yl)amino)-5-chloro-2-fluoro-N-(thiazol-4-yl)benzenesulfonamide formate], the IC50 in series [1], in series [2] and in series [3] was 30 µM each time.

With `C[C@H](Nc1cc(F)c(S(=O)(=O)Nc2ncc(Cl)s2)cc1Cl)c1ccccc1F` [Example 267, (S)-5-chloro-2-fluoro-4-((1-(2-fluorophenyl)ethyl)amino)-N-(5-chlorothiazol-2-yl)benzenesulfonamide], the IC50 is 0.959 µM in series [1], 3.58 µM in series [2] and 6.96 µM in series [3].

In the case of `Cc1cc(N[C@@H](C)c2ccccc2F)c(Cl)cc1S(=O)(=O)Nc1nccs1` [Example 269, (S)-5-chloro-4-((1-(2-fluorophenyl)ethyl)amino)-2-methyl-N-(thiazol-2-yl)benzenesulfonamide], the IC50 in series [1] amounted to 0.584 µM; in series [2], 2.78 µM; in series [3] it was 6.72 µM.

For `CN(C)Cc1ccccc1CNc1cc(F)c(S(=O)(=O)Nc2cscn2)c(F)c1` [Example 271, 4-((2-((dimethylamino)methyl)benzyl)amino)-2,6-difluoro-N-(thiazol-4-yl)benzenesulfonamide], the IC50 stood at 0.448 µM in series [1], 30 µM in series [2] and 30 µM in series [3].

Regarding `CC[C@H](Nc1cc(F)c(S(=O)(=O)Nc2ccncn2)c(F)c1)c1cc(F)ccc1Cl` [Example 276, (S)-4-((1-(2-chloro-5-fluorophenyl)propyl)amino)-2,6-difluoro-N-(pyrimidin-4-yl)benzenesulfonamide], the IC50 in series [1] was determined as 0.265 µM; in series [2], 3.6 µM; in series [3] it was 24.3 µM.

Consider `C[C@@H](c1cccc(F)c1CNc1cc(F)c(S(=O)(=O)Nc2cscn2)c(F)c1)N1CCC1` [Example 278, (S)-4-((2-(1-(azetidin-1-yl)ethyl)-6-fluorobenzyl)amino)-2,6-difluoro-N-(thiazol-4-yl)benzenesulfonamide formate], for which the IC50 worked out at 0.187 µM in series [1], 14.2 µM in series [2] and 30 µM in series [3].

For the molecule `C[C@H](c1cccc(F)c1CNc1cc(F)c(S(=O)(=O)Nc2cscn2)c(F)c1)N1CCC1` [Example 279, (R)-4-((2-(1-(azetidin-1-yl)ethyl)-6-fluorobenzyl)amino)-2,6-difluoro-N-(thiazol-4-yl)benzenesulfonamide formate], the IC50 is 0.163 µM in series [1], 11.2 µM in series [2] and 30 µM in series [3].

The values are drawn from patent publication US11174268B2, “Benzenesulfonamide compouds and their use as therapeutic agents” (Xenon Pharmaceuticals Inc., priority 2016, dated 2021).
